Experimental findings from US20240415920A1, “PEPTIDE HAVING ACTIVITY OF PREVENTING HAIR LOSS OR PROMOTING HAIR GROWTH, AND USE THEREOF” (CAREGEN CO., LTD., priority 2021, published 2024) are described below.

What all share (assay type): cell-based, human
Experiment [1] has as its system DKK-1 protein. In words: Western blotting of DKK-1 protein in DHT-treated HHFDPC. The note with it: HHFDPC with DHT 100 nM, peptide 10 nM, 1 μM, 24 hours, FIG. 5. Here is the method: DKK-1 protein (dickkopf-related protein 1) is a hair loss-related protein known to be highly expressed in individuals with hair loss, especially male pattern hair loss, and its expression is known to be promoted by hormones such as DHT (Dihydrotestosterone). Accordingly, the expression of DKK-1 protein was induced by treating HHFDPC cells with DHT together with the peptide according to the Preparation Example of the present invention, and then the expression level of DKK-1 was measured through Western blotting to determine whether there was an effect of suppressing the expression of DKK-1 protein.
Specifically, HHFDPC as in [Experiment Example 1-1] was seeded in a 6-well culture plate at 4×10^5 cells/well and then cultured in MSC complete medium (mesenchymal stem cell complete media) for 24 hours. Next, the medium was replaced with serum free MSC complete medium and cultured again for 24 hours. In addition, the HHFDPC was treated with the peptide of SEQ ID NO: 1 prepared in Preparation Example at concentrations of 10 nM, 100 nM, and 1 μM, respectively, and at this time, DHT, an expression inducer of DKK-1 protein, was simultaneously treated at a concentration of 100 nM and then cultured at 37° C. for 24 hours. […] After washing again with 0.1% PBS-T (0.1% Tween-20 in PBS) three times for 15 minutes each, DKK-1 protein was detected by treatment with ECL solution (GE Healthcare, USA).

In experiment [2] the test system is β-catenin. In words: Western blotting of β-catenin moved into the nucleus of HHFDPC. As to conditions: peptide 10 nM, 100 nM, 1 μM, 24 hours, FIG. 3. Here is the method:
In addition, in addition to p-AKT and p-ERK, in order to confirm the activation of β-catenin, which is known to affect cell proliferation and differentiation, whether β-catenin moved into the nucleus was confirmed through Western blotting. Specifically, the HHFDPC as in [Experiment Example 1-1] was seeded in a 6-well culture plate at an amount of 4λ10^5 cells/well, cultured in MSC complete medium (mesenchymal stem cell complete media) for 24 hours. Next, the medium was replaced with serum free MSC complete medium and cultured again for 24 hours. Then, the HHFDPC was treated with the peptide of SEQ ID NO: 1 prepared in the Preparation Example at concentrations of 10 nM, 100 nM, and 1 μM, respectively, and cultured at 37° C. for 24 hours. As a positive control, minoxidil was treated at a concentration of 1 μM, and as a negative control, HHFDPC without any treatment was used. After washing with PBS, proteins in the nucleus were isolated using a nuclear protein extraction kit (Thermo scientific, USA). After electrophoresis using a 10% SDS-PAGE gel, it was transferred to a PVDF membrane and blocked using 5% skim milk at room temperature for 30 minutes. […] After washing again with 0.1% PBS-T (0.1% Tween-20 in PBS) three times for 15 minutes each, β-catenin was detected by treatment with ECL solution (GE Healthcare, USA).

The subject of experiment [3] is MSX2. In words: RT-PCR of MSX2 expression in HHGMC. As to conditions: peptide 10 nM, 100 nM, 1 μM, 72 hours, FIG. 7. Here is the method:
Using the peptide of the present invention consisting of the amino acid sequence of SEQ ID NO: 1 prepared according to Preparation Example above, it was confirmed whether it promoted the expression of transcription factors related to the activity of germinal matrix cells, a type of cell that forms hair.
Specifically, HHGMC (human hair germinal matrix cell, Sciencell, USA) was seeded in a 6-well culture plate at 4×10^5 cells/well and then cultured in MSC complete medium (mesenchymal stem cell complete media) for 24 hours. Next, the medium was replaced with serum free MSC complete medium and cultured again for 24 hours. Then, the HHGMC was treated with the peptide of SEQ ID NO: 1 prepared in the Preparation Example at concentrations of 10 nM, 100 nM, and 1 μM, respectively, and cultured at 37° C. for 72 hours. As a positive control, EGF was treated at a concentration of 50 nM, and as a negative control, HHGMC without any treatment was used. […] Next, cDNA was synthesized using a cDNA synthesis kit (enzynomics, Korea) by quantification using nano drop, and PCR was performed using primers for MSX2 consisting of base sequences according to Table 4 below and PCR premix (enzynomics, Korea). Electrophoresis was performed on a 1.5% agarose gel, and MSX2 mRNA was detected using a band analysis system (Bio-Rad gel image system).

For experiment [4], the system named is cyclin D1. The experiment in a line: RT-PCR of cyclin D1 expression in HHFDPC. As to conditions: peptide 10 nM, 100 nM, 1 μM, 24 hours, FIG. 4. Here is the method:
Furthermore, in order to determine whether the β-catenin moves to the nucleus and is s activated to affect cell proliferation and differentiation, whether the expression of LEF-1 and cyclin D1 (cyclin D1), which act as downstream factors, increases with β-catenin activation was confirmed through RT-PCR. Specifically, in the same manner as the previous Western blotting experiment, HHFDPC cells were cultured, treated with the peptides of the Preparation Example of the present invention at concentrations of 10 nM, 100 nM, and 1 μM, respectively, and cultured at 37° C. for 24 hours. After washing the cells with PBS, RNA was isolated by treating them with 300 […] of easy blue (intron, Korea). Then, cDNA was synthesized using a cDNA synthesis kit (enzynomics, Korea) by quantifying it with nano drop, and PCR was performed using primers for LEF-1 and cyclin D1 (base sequences of the primers are listed in Table 2) and PCR premix (enzynomics, Korea). Electrophoresis was performed on a 1.5% agarose gel, and then the mRNA of LEF-1 and cyclin D1 was detected using a band analysis system (Bio-Rad gel image system).

As for “GCGLFVAAC [peptide of the present invention]”, the “concentration dependence of the DKK-1 expression level” value in experiment [1] is “decreased depending on the concentration”. The “amount of DKK-1 protein compared to the negative control group (DHT only)” value in experiment [1] (Western blotting) was “found to be reduced”. Besides, the “β-catenin migration to the nucleus compared to the control group not treated with the peptide” value in experiment [2] (HHFDPC nuclear protein, Western blotting) was “migration due to activation of β-catenin increased”. In addition, the “concentration dependence of β-catenin activation” value in experiment [2] (HHFDPC) is recorded as “further promoted depending on the concentration”. Also, the “MSX2 mRNA amount compared to the untreated control group” value in experiment [3] is recorded as “the amount of mRNA increased further”. Moreover, the “cyclin D1 mRNA amount compared to the control group without any treatment” value in experiment [4] is “the amount of mRNA increased further”.
